Consider 1 substance from patent US11299524B2, “KIF13B-derived peptide and method of inhibiting angiogenesis” (THE BOARD OF TRUSTEES OF THE UNIVERSITY OF ILLINOIS, priority 2016, dated 2022).

Test [1] relates to HUVECs. Put plainly: VEGF-induced capillary network formation on […] in vitro. The format is cell-based, human. Conditions: synthetic peptide added. The method, then: (§1) Collagen invasion assay was performed as previously described (Kang, et al. (2011) J. Biol. Chem. 286:42017-26). In vitro capillary network formation on […] (BD Biosciences, San Jose, Calif.) and scratch wound healing assay were performed as previously described (Humtsoe, et al. (2010) Mol. Cell Biol. 30:1593-1606). Fibrin gel sprouting assay was performed as described by Nakatsu & Hughes ((2008) Methods Enzymol. 443:65-82). VEGF (2.2 nmol/L) stimulation was used for all in vitro angiogenesis assays. Transwell migration assay was performed as described by Kaplan, et al. ((2011) Free Radical Res. 45:1124-35) using VEGF (4.4 nmol/L), sphingosine-1-phosphate (S1P) (1 μmol/L), or basic fibroblast growth factor (bFGF) (50 ng/mL) in the presence or absence of kinesin-derived angiogenesis inhibitor (DUF2C5; residues 1238-1260 of KIF13B) at varying concentrations.
To test the bioactivity of the truncated mutant of KIF13B, DUF2C was expressed by lentivirus vector in HUVECs. […] The collagen invasion system (Kang, et al. (2011) J. Biol. Chem. 286:42017-42026) was used as another angiogenesis assay to test the peptides. After infection with control lentivirus, FLAG-DUF2C, or FLAG-DUF2, HUVECs were seeded on collagen gels. Cell invasion in response to proangiogenic stimuli SIP and VEGF in the gel was monitored for up to 24 hours.
Bioactivities in two-dimensional capillary network formation assay were assessed in HUVECs expressing KIF13B truncated mutants or vector controls. HUVECs were infected with lentiviruses encoding FLAG-C2, -C3, -C5, -C8, -C9, or vector.
(§2) Changes in VEGF-induced network formation assay were assessed in […] plugs. […] VEGF-induced EC sprouting was also determined by 3-dimensional culture of HUVECs on beads (Nakatsu & Hughes (2008) Methods Enzymol. 443:65-82).

Test [2] relates to HUVECs. Put plainly: fibrin gel sprouting assay (3-dimensional culture of HUVECs on beads). Format: cell-based, human. Conditions: 1 μmol/L, VEGF-induced EC sprouting. As for the experimental part: as §1, §2
Test [3] has as its system choroidal neovascularization. Put plainly: laser-induced choroidal neovascularization (CNV). Format: in vivo, mouse. Conditions: eye drop, 2 μg/eye daily. The method, then: FIG. 5A and FIG. 5B show the effect of DUF2C5 treatment on laser-induced CNV. FIG. 5A, Dose-dependent effect of DUF2C5 was tested by intravitreal injection of DUF2C5 0.5 μg, 2 μg, and 10 μg after laser photocoagulation. Neovascularization was assessed by the area of ILB4-staining, and plotted in the graph (N=5 mice in each group, and 4 laser burns were induced in each mouse). Asterisks indicate p<0.05, One-way ANOVA. FIG. 5B, Effect of DUF2C5 as an eye drop was tested in CNV model. After laser photocoagulation, mice were treated daily with either control peptide (2 μg/eye) or DUF2C5 (2 μg/eye) for […]. Neovascularization was assessed by the area of ILB4-staining, and plotted in the graph (N=7 mice in each group, and 4 laser burns were induced in each mouse). Asterisks indicate p<0.05, t-test. […]
Choroidal neovascularization was evaluated by ocular coherence tomography (OCT) and fluorescein angiography at day 7 and 14. […]
The experiments were terminated at day 14 after taking images of OCT and angiography. […] The area of vascular leakage and CNV was quantified using confocal image of CNV staining for lectin B4 using MetaMorph software. Data was plotted and analyzed statistically with Prism 6 (Graph Pad, San Diego Calif.). […]
The effect of DUF2C5 as an eye drop was subsequently tested. […] Neovascularization was assessed by OCT, fluorescein angiography, and staining with ILB4.

The target of a further test is VEGFR2 (Homo sapiens, UniProt P35968). The test can be described thus: surface plasmon resonance (SPR) with BIACORE. Format: binding. Further details: recombinant cytosolic domain of kinases (Fisher Scientific); purchased Fisher Scientific. As to conditions: peptide on avidin-coated chip, recombinant cytosolic domain of kinase. The method, then:
Additionally, the sequence of DUF2C5 is highly conserved in mammalian KIF13B. […] To further test the specificity of DUF2C5, pull-down of proteins was conducted using DUF2C5 or control peptide (CT23) immobilized on streptavidin beads followed by mass spec analysis of the binding proteins. This analysis detected the presence of KIF13B, VEGFR2, and co-receptor NRP1 (number of hits were 28, 11, and 5, respectively). Tie2, Par1, S1PR1, and FGFR were not found. Other cargo for KIF13B (e.g., CentA, hDlg) were also not found. […] The affinity of each receptor tyrosine kinase was subsequently tested via surface plasmon resonance (SPR) with BIACORE (UIC, RRC), using DUF2C5 and CT23 on an avidin-coated chip, and recombinant cytosolic domain of kinases (Fisher Scientific).
A general note: Surface plasmon resonance follows binding to a sensor surface in real time, without labels.

Sequence of VEGFR2 (P35968 786-1356 limits assumed, species assumed): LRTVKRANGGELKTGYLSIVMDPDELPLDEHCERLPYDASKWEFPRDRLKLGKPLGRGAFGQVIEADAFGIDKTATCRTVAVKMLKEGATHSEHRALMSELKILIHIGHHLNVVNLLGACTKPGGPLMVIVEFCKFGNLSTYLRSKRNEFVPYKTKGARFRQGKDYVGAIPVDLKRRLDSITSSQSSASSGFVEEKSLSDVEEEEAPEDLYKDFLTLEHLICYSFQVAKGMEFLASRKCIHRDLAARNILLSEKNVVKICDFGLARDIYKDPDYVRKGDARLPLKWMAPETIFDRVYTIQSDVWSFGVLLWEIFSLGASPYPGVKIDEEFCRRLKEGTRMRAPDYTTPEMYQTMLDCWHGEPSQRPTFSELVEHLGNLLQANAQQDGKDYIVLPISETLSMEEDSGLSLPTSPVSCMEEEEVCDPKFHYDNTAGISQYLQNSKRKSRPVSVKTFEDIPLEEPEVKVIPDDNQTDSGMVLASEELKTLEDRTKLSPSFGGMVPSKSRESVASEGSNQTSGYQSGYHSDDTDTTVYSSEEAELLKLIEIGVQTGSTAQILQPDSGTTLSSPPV

Turning to “CT23: negative control, C-terminal 23-amino acid peptide, residues 1650 to 1672 of KIF13B (RVRASELRSFSRMLAGDPGCSPG)”, in the test with HUVECs [1], the VEGF-induced network formation result was “had no effect”. Also, in the test with HUVECs [2], the “number of branching point structures per bead” value was 4-6 branches and the “number of sprouts per bead” value is 13-16 sprouts. The “neovascularization (laser-induced CNV)” value in test [3] is “did not have any effect”. The “KD value, VEGFR2” value in the test with VEGFR2 is recorded as “did not bind”.
